Results on two compounds are retold here after ChEMBL document CHEMBL1134333, “[3H]N-2-(4-(N-benzamido)phenyl)propyl-2-propanesulfonamide: a novel AMPA receptor potentiator and radioligand” (J Med Chem, 2001).

The target of assay [1] is T1, Glutamate receptor ionotropic, AMPA (Rattus norvegicus, UniProt P19490+P19491+P19492+P19493). Kind of assay: Effective concentration of AMPA required to increase specific binding of [3H]6 to rat cerebral cortical membranes.
The target in assay [2] is T1, Glutamate receptor ionotropic, AMPA. Kind of assay: Effective concentration of glutamate required to increase specific binding of [3H]6 to rat cerebral cortical membranes.
Assay [3] shares this target. Kind of assay: Inhibition of binding to AMPA receptor from rat cerebral cortex. It counts as tissue-based.

For orientation: EC50 means the concentration giving half of the maximal effect. For orientation: IC50 means the concentration needed to halve the response being measured. High values mean weaker potency, low ones greater potency. With `CC(CNS(=O)(=O)C(C)C)c1ccc(NC(=O)c2ccccc2)cc1` (centres undefined), the EC50 in assay [1] was 5.5 µM; in assay [2] it was 31 µM. The IC50 in assay [3] was found to be 0.17 µM.

In assay [3], `NS(=O)(=O)c1cc2c(cc1Cl)NC(C1CC3C=CC1C3)NS2(=O)=O` (centres undefined) [CYCLOTHIAZIDE] returned an IC50 of 6.1 µM.
